Source: patent US11884627B2, “Compounds and compositions for treating conditions associated with LPA receptor activity” (Lhotse Bio, Inc., priority 2022, dated 2024)

How the values were obtained:
human LPA1 [1] = biological target: T1, human LPA1 (Homo sapiens, UniProt Q92633); experiment: In vitro LPA1 functional antagonist assay (calcium mobilization, FLIPR); format: cell-based; settings: CHO-K1 cells overexpressing human LPA1, Oleoyl LPA challenge at EC80
T1 construct: expressed in transfected cells; host or cells: CHO-K1
Experimental: In Vitro LPA1 Functional Antagonist Assay
CHO-K1 cells overexpressing human LPA1 were seeded in a total volume of 20 μL into black-walled, clear-bottom. Poly-D-lysine coated 384-well microplates and incubated at 37° C., for the appropriate time prior to testing. Assays were performed in 1× Dye Loading Buffer consisting of 1× Dye, 1× Additive A and 2.5 mM Probenecid in HBSS/20 mM Hepes. Probenicid was prepared fresh. Cells were loaded with dye prior to testing. Media was aspirated from cells and replaced with 20 μL Dye Loading Buffer. Cells were incubated for 30-60 minutes at 37° C. After dye loading, cells were removed from the incubator and 10 μL 3× test compound was added. Cells were incubated for 30 minutes at room temperature in the dark to equilibrate plate temperature followed by Oleoyl LPA challenge at EC80. Compound antagonist activity was measured on a FLIPR Tetra (MSD). Calcium mobilization was monitored for 2 minutes and 10 μL Oleoyl LPA in HBSS/20 mM Hepes was added to the cells 5 seconds into the assay. For LPA EC80 determination, after dye loading, cells were removed from the incubator and 10 μL HBSS/20 mM Hepes was added. 3× vehicle was included in the buffer. Cells were incubated for 30 minutes at room temperature in the dark to equilibrate plate temperature. Intermediate dilution of LPA stocks was performed to generate 4×LPA samples in assay buffer. LPA agonist activity was measured on a FLIPR Tetra (MSD). Calcium mobilization was monitored for 2 minutes and 10 μL 4×LPA sample in HBSS/20 mM Hepes was added to the cells 5 seconds into the assay. Compound activity was analyzed using CBIS data analysis suite (ChemInnovation, CA). Percentage inhibition is calculated using the following formula: % Inhibition=100%×(1−(mean RFU of test sample−mean RFU of vehicle control)/(mean RFU of LPA control−mean RFU of vehicle control)).
Table B1 and Table B2 show the biological activity of compounds in in vitro LPA1 functional antagonist assay. Activity of the tested compounds provided in Table B1 is as follows: +++=IC50<1 μM; ++=IC50 1 μM−10 μM; +=IC50>10 μM.

human LPA1 [2] = biological target: T1, human LPA1; experiment: In vitro LPA1 calcium flux antagonist assay - Bioduro protocol; format: cell-based; settings: CHO-K1 cells overexpressing human LPA1 and G15a, LPA challenge at EC80
Procedure, shortened: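 CHO-K1 cells overexpressing human LPA1 and G15a, serum-starved 4 h, loaded with Fluo-8 AM plus 2.5 mM probenecid in HBSS/20 mM Hepes for 30 min at 37 °C. Compound preincubated 30 min, then LPA challenge at EC80; FLIPR calcium signal, % inhibition relative to DMSO and LPA controls.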

[3] = Table B1, read-out: Activity (IC50 class)
[4] = calcium mobilization on FLIPR Tetra, read-out: IC50
[5] = Table B3, read-out: Activity (IC50 class)

T1 sequence (Q92633 whole entry): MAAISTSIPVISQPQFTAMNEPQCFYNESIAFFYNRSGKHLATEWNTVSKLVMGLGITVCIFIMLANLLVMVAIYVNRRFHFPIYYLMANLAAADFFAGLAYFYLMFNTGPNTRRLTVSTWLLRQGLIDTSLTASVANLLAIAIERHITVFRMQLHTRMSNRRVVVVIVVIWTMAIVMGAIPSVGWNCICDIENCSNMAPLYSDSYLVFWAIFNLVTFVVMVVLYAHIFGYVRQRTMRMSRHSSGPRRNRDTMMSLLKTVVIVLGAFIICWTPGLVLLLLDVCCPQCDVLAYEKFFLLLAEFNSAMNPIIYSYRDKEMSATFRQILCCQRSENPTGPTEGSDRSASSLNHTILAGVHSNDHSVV

SMILES | IC50 (human LPA1 [1]; [3]) [nM] | IC50 (human LPA1 [1]; Table B2, read-out: IC50) [nM] | IC50 (human LPA1 [2]; [4]) [nM] | IC50 (human LPA1 [2]; [5]) [nM]
COc1cc(-c2ccc(NCCC(=O)O)cc2COCc2ccccc2)ccc1C(F)F [Compound 102] | 1000 to 10000 | 2490 |  | 
COc1cc(OC)cc(-c2ccc(NCCC(=O)O)cc2COC2Cc3ccccc3C2)c1 [Compound 103] | 1000 to 10000 | 1540 |  | 
CCOc1c(C)ccc(-c2ccc(NC3(C(=O)O)CC3)cc2COC2CC2)c1C [Compound 368] |  |  | 40.7 | < 100
CCOc1c(C)ccc(-c2ccc(OC3(C(=O)O)CCOCC3)cc2COC2CC2)c1C [Compound 369] |  |  | 44.8 | < 100
CCOc1cccc(-c2ccc(OC3(C(=O)O)CCOCC3)cc2COC2CC2)c1C(F)F [Compound 371] |  |  | 22.3 | < 100
Cc1c(OC2CC2)cccc1-c1ccc(OC2(C(=O)O)CCOCC2)cc1COC1CC1 [Compound 372] |  |  | 57.4 | < 100
CCOc1cccc(-c2ccc(NC3(C(=O)O)CCOCC3)cc2CCC2CC2)c1F [Compound 373] |  |  | 1.2 | < 100
CCOc1cccc(-c2ccc(OC3(C(=O)O)CCOCC3)cc2COC2CC2)c1Cl [Compound 374] |  |  | 14.6 | < 100
CCOc1cccc(-c2ccc(OC3(C(=O)O)CCC3)cc2COC2CC2)c1C(F)F [Compound 375] |  |  | 24.3 | < 100
CCOc1cccc(-c2ccc(NC3(C(=O)O)CCCC3)cc2COC2CC2)c1C(F)F [Compound 376] |  |  | 1.03 | < 100
CCOc1cccc(-c2ccc(OC3(C(=O)O)CCC3)cc2COC2CC2)c1 [Compound 377] |  |  | > 10000 | > 1000
COc1cc(OC2CC2)cc(-c2ccc(OC3(C(=O)O)CCOCC3)cc2COC2CCCC2)c1 [Compound 378] |  |  | 834 | 100 to 1000
CCOc1cc(-c2ccc(OC3(C(=O)O)CCOCC3)cc2COC2CCCC2)cc(OC)c1C [Compound 379] |  |  | 67.3 | < 100
CCOc1c(C)ccc(-c2ccc(NC3(C(=O)O)CCOCC3)cc2COC2CC2)c1F [Compound 381] |  |  | 17.5 | < 100
CCOc1cc(OC)cc(-c2ccc(C3(C(=O)O)CC3)cc2COC2CC2)c1F [Compound 382] |  |  | > 10000 | > 1000
CCOc1cccc(-c2ccc(NC3(C(=O)O)CCC(F)(F)CC3)cc2COC2CC2)c1C [Compound 383] |  |  | 0.847 | < 100
CCOc1cccc(-c2ccc(NC3(C(=O)O)CCC(F)(F)CC3)cc2COC2CC2)c1C(F)F [Compound 384] |  |  | 0.803 | < 100
CCOc1cccc(-c2ccc(NC3(C(=O)O)CCC(F)(F)CC3)cc2COC2CC2)c1Cl [Compound 385] |  |  | 0.633 | < 100
O=C(O)C1(Nc2ccc(-c3cccc(OC4CC4)c3Cl)c(COC3CC3)c2)CCC(F)(F)CC1 [Compound 386] |  |  | 3.84 | < 100
Cc1c(OC2CC2)cccc1-c1ccc(NC2(C(=O)O)CCC(F)(F)CC2)cc1COC1CC1 [Compound 387] |  |  | 4.39 | < 100
CCOc1cc(OC)cc(-c2ccc(NC3(C(=O)O)CCC(F)(F)CC3)cc2COC2CC2)c1F [Compound 388] |  |  | 6.2 | < 100
O=C(O)C1(Nc2ccc(-c3cccc(OC4CC4)c3C(F)F)c(COC3CC3)c2)CCC(F)(F)CC1 [Compound 389] |  |  | 0.772 | < 100
CCCCOCc1cc(NC2(C(=O)O)CCOCC2)ccc1-c1cc(OC)cc(OCC)c1F [Compound 390] |  |  | 0.658 | < 100
CCOc1cc(OC)cc(-c2ccc(C3(C(=O)O)CC3)cc2COC2CCCC2)c1F [Compound 391] |  |  | 471 | 100 to 1000
